Measured values taken from patent US20060293516A1, “Penicillin crystal and process for producing the same” (priority 2003, published 2006).

Experiments:
[1] = Storage stability of solid CMPB at room temperature, purity by liquid chromatography; format: physicochemical
Procedure: Five grams of the crystalline CMPB obtained in Example 1 (purity: 100%) and 5 g of the amorphous CMPB obtained in Reference Example 1 (purity: 99.2%) were placed in respective test tubes. These test tubes were sealed and stored at room temperature (20 to 30° C.) for 1 month. The respective purities of the CMPB samples were then determined using liquid chromatography.
(§1) One gram of crystalline CMPB (purity: 97%) prepared by storing the crystalline CMPB of Example 1 for 20 days at room temperature (about 25° C.) and 1.244 g of amorphous CMPB (purity: 78%) prepared by storing the amorphous CMPB of Reference Example 1 for 20 days at room temperature (about 25° C.) were used as test samples. Each sample was placed in flasks and 10 ml dichloromethane was added to dissolve the sample. These flasks were sealed. The dichloromethane solutions of CMPB samples were stirred at room temperature (about 25° C.) and, after 3.5 hours and after 5 hours, subjected to liquid chromatography to measure the amounts of CMPB remaining in the solutions. The amounts of the remaining CMPB were compared with the amount of CMPB in the crystalline CMPB sample or the amount of CMPB in the amorphous CMPB sample, which were measured prior to the test.

[2] = Stability of CMPB in dichloromethane solution, remaining CMPB by liquid chromatography; format: physicochemical; settings: stirred at room temperature (about 25° C.)
Procedure: as §1, with “The dichloromethane solutions of CMPB samples were stirred at room temperature (about 25° C.) and, after 3.5 hours and after 5 hours, subjected to liquid chromatography to measure the amounts of CMPB remaining in the solutions.” left out

[3] = sealed test tube, room temperature (20 to 30° C.), 1 month, initial purity 100% (crystalline), 99.2% (amorphous)
[4] = stored 20 days at room temperature (about 25° C.)

Row | SMILES | purity after storage [1, 3] [%] | purity after storage [1, 4] [%] | amount of CMPB remaining in dichloromethane solution relative to initial amount ([2]; after 3.5 hours) | amount of CMPB remaining in dichloromethane solution relative to initial amount ([2]; after 6 hours (so in the source)) [%] | amount of CMPB remaining in dichloromethane solution relative to initial amount ([2]; after 5 hours)
1 | C[C@@]1(CCl)SC2CC(=O)N2[C@H]1C(=O)OC(c1ccccc1)c1ccccc1 (stereo partly drawn) [amorphous CMPB, 2β-chloromethyl-2α-methylpenam-3α-carboxylic acid benzhydryl ester] | 67 | 78 | 86.8% | 63.4 | 
2 | C[C@@]1(CCl)SC2CC(=O)N2[C@H]1C(=O)OC(c1ccccc1)c1ccccc1 (stereo partly drawn) [crystalline CMPB, 2β-chloromethyl-2α-methylpenam-3α-carboxylic acid benzhydryl ester] | 95 | 97 | exactly the same as the initial amount |  | exactly the same as the initial amount
